Laboratory results: publication PMC6158327, “Negative Allosteric Modulators of mGlu7 Receptor as Putative Antipsychotic Drugs” (Frontiers in Molecular Neuroscience, 2018)

Key:
[1] = target: Cytochrome P450 3A4 (Homo sapiens, UniProt P08684); assay: Cytochrome P450 inhibition, 3A4; format: in vitro ADME
[2] = tested on: MK-801-induced increase in immobility time; assay: Modified forced swim test after chronic MK-801; format: in vivo, Albino Swiss mice; conditions: chronic (13 days) MK-801 0.4 mg/kg, mice
Description: The modified forced swim test was performed according to the method introduced by Noda ([Noda et al., 1995], [1997]; [Wierońska et al., 2015a]; [Woźniak et al., 2016a]). The swim tests were performed in a glass cylinder (height, 20 cm; internal diameter, 15 cm) containing 11 cm of water maintained at 23–24°C. After the acclimation period, the animals underwent the first swim test, where the immobility time was measured during a 3 min period (T1). On the next day, chronic (13 days) MK-801 administration (0.4 mg/kg, i.p.) was started. After a 1-day break, on the 15th day of experiment, the second swim session was performed and the immobility time during 3-min test was measured again (T2). The T2 - T1 difference was reported as the result of the experiment.

Cytochrome P450 3A4, sequence (P08684 whole entry): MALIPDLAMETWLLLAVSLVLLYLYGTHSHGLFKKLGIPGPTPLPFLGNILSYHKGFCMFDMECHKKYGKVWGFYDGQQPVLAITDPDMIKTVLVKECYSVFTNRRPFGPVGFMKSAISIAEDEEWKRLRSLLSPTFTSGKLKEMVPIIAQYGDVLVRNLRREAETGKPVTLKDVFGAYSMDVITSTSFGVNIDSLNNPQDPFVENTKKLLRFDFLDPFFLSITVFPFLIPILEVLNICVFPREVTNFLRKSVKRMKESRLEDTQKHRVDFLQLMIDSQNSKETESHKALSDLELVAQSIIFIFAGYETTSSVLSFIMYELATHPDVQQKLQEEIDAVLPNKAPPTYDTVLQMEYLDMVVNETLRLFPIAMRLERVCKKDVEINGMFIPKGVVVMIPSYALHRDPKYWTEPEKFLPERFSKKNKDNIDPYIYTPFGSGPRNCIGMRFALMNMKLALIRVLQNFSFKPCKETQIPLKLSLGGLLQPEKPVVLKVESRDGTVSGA

Compound | IC50 [1] | Effect on MK-801-induced increase in immobility time (modified forced swim test) ([2]; 1 mg/kg i.p. acutely 30 min before T2) | Effect on MK-801-induced increase in immobility time (modified forced swim test) ([2]; 15 mg/kg i.p. acutely 30 min before T2)
CCc1nc2c(o1)CC(c1ccc(C)cc1C)CC2=O (stereo not drawn) [ADX71743, 6-(2,4-Dimethylphenyl)-2-ethyl-6,7-dihydro-4(5H)-benzoxazolone] | > 10 µM |  | 
COc1ccc(-c2cc3onc(-c4ccncc4)c3c(=O)n2C)cc1 [MMPIP, 6-(4-Methoxyphenyl)-5-methyl-3-(4-pyridinyl)-isoxazolo(4,5-c)pyridin-4(5H)-one] |  | significant reversal of MK-801-induced effect | significant reversal of MK-801-induced effect
